Like-named read-outs stand apart in the source and are kept apart here.
Biological target: T1, 5-HT1 -like receptor (Oryctolagus cuniculus, UniProt P49144)
T1 construct: contraction of the saphenous vein of New Zealand White rabbits; from tissue; host or cells: saphenous vein of New Zealand White rabbits
Assay: agonist-mediated contraction of the saphenous vein of New Zealand White rabbits
Format: cell-based
Method: The activity of test compounds as agonists of the 5-HT1 -like receptor was measured in terms of their ability to mediate contraction of the saphenous vein of New Zealand White rabbits, using the procedure described in Arch. Pharm., 1990, 342, 111. Agonist potencies were calculated as -log10 EC50 (pEC50) values, from plots of percentage 5-HT (1 μm) response against the concentration of the agonist.

[1] = rabbit saphenous vein contraction, from plots of percentage 5-HT (1 μm) response against agonist concentration

T1 sequence (P49144 whole entry): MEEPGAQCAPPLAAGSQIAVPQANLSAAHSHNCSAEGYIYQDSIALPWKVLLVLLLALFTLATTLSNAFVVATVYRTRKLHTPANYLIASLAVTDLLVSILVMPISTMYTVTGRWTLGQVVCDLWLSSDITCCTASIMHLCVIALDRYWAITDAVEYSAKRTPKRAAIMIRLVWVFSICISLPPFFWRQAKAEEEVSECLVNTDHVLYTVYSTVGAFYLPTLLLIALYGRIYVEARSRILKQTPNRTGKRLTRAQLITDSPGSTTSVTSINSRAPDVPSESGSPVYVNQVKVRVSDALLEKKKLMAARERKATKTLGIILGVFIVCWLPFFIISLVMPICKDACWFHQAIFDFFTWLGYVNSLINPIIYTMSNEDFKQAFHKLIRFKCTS

| SMILES | EC50 [µM] | also measured |
| --- | --- | --- |
| NCCc1c[nH]c2ccc(-c3nc(Cc4ccccc4)no3)cc12 [Example 1, 2-[5-(5-(3-Benzyl-1,2,4-oxadiazol)-yl)-1H-indol-3-yl]ethylamine] | ≤ 10 |  |
| NCCc1c[nH]c2ccc(Cc3nc(Cc4ccccc4)no3)cc12 [Example 4] | ≤ 10 |  |
| NCCc1c[nH]c2ccc(Cc3nc(N)no3)cc12 [Example 6] | ≤ 10 |  |
| CC(=O)Nc1ccc(Cc2noc(-c3ccc4[nH]cc(CCN(C)C)c4c3)n2)cc1 [Example 27, N,N-Dimethyl-2-[5-[5-(3-(4-Acetylaminobenzyl)-1,2,4-oxadiazol)yl]-1H-indol-3-yl]ethylamine] | ≤ 10 |  |
| CN(C)CCc1c[nH]c2ccc(-c3nc(Cc4ccc(NS(C)(=O)=O)cc4)no3)cc12 [Example 28, N,N-Dimethyl-2-[5-[5-(3-(4-Methylsulphonylaminobenzyl)-1,2,4-oxadiazol)yl]-1H-indol-3-yl]ethyl amine] |  | agonist potency -log10 EC50 (pEC50) [1]: not less than 5.0 |
| CN(C)CCc1c[nH]c2ccc(Cc3nc(N)no3)cc12 [Example 30, N,N-Dimethyl-2-[5-[5-(3-Amino-1,2,4-oxadiazol)ylmethyl]-1H-indol-3-yl]ethylamine] | ≤ 10 |  |
| NCCc1c[nH]c2ccc(-c3nc(Cc4ccc(NC(N)=O)cc4)no3)cc12 [Example 44, 2-[5-(5-(3-(4-Carbamoylaminobenzyl)-1,2,4-oxadiazol)yl)-1H-indol-3-yl]ethylamine] | ≤ 10 |  |
| NCCc1c[nH]c2ccc(-c3nc(N)no3)cc12 [Example 45, 2-[5-(5-(3-Amino-1,2,4-oxadiazol)-yl)-1H-indol-3-yl]ethylamine] | ≤ 10 |  |
| CN(C)CCc1c[nH]c2ccc(-c3nc(N)no3)cc12 [Example 49, N,N-Dimethyl-2-[5-(5-(3-amino-1,2,4-oxadiazol)yl)-1H-indol-3yl]ethylamine] | ≤ 10 |  |
| CN(C)CCc1c[nH]c2ccc(-c3nc(Cc4ccc(NC(N)=O)cc4)no3)cc12 [Example 52, N,N-Dimethyl-2[5-(5-(3-(4-carbamoylaminobenzyl)-1,2,4-oxadiazol)yl)-1H-indol-3-yl]ethylamine] | ≤ 10 |  |
| CN(C)CCc1c[nH]c2ccc(-c3nc(CCNC(=O)OC(C)(C)C)no3)cc12 [Example 53, N,N-dimethyl-2-[5-(5-(3-(2-t-butyloxycarbonylamino)ethyl-1,2,4-oxadiazol)yl)-1H-indol-3-yl]ethylamine] | ≤ 10 |  |
| CN(C)CCc1c[nH]c2ccc(-c3nc(CCNS(C)(=O)=O)no3)cc12 [Example 56, N,N-dimethyl-2-[5-(5-(3-(2-methylsulphonylamino)ethyl-1,2,4-oxadiazol)yl)-1H-indol-3-yl]ethylamine] | ≤ 10 |  |
| CN(C)CCc1c[nH]c2ccc(CCc3nc(N)no3)cc12 [Example 61, N,N-Dimethyl-2-[5-(2-(5-(3-amino-1,2,4-oxadiazol)yl)ethyl)-1H-indol-3-yl]ethylamine] |  | agonist potency -log10 EC50 (pEC50) [1]: not less than 5.0 |
| CNS(=O)(=O)c1ccc(Cc2noc(Cc3ccc4[nH]cc(CCN(C)C)c4c3)n2)cc1 [Example 65, N,N-Dimethyl-2-[5-(5-(3-(4-methylaminosulphonylbenzyl)-1,2,4-oxadiazol)ylmethyl)-1H-indol-3-yl]ethylamine] | ≤ 10 |  |
| CN(C)CCc1c[nH]c2ccc(Cc3nc(CNC(=O)c4ccccc4)no3)cc12 [Example 88, N,N-Dimethyl-2-[5-(5-(3-phenylcarboxamidomethyl-1,2,4-oxadiazol)ylmethyl)-1H-indol-3-yl]ethylamine] | ≤ 10 |  |
| CN(C)CCc1c[nH]c2ccc(Cc3nc(N4CCN(C(=O)OC(C)(C)C)CC4)no3)cc12 [Example 93, N,N-Dimethyl-2-[5-(5-(3-(4-^t-butyloxycarbonyl)piperazine-1,4-yl-1,2,4-oxadiazol)ylmethyl)-1H-indol-3-yl]ethylamine] | ≤ 10 |  |
| CN1CCC(c2c[nH]c3ccc(Cc4nc(N)no4)cc23)CC1 [Example 110, 4-[5-(3-Amino-1,2,4-oxadiazol-5-ylmethyl)-1H-indol-3-yl]N-methylpiperidine] |  | EC50 (rabbit saphenous vein contraction, from plots of percentage 5-HT (1 μm) response against agonist concentration, read-out: agonist potency -log10 EC50 (pEC50) (converted)): ≤ 10 µM |
